{"source": "patent US20130039928A1", "about": "“COMPOSITIONS AND METHODS FOR REVERSING CORTICOSTEROID RESISTANCE OR TREATING RESPIRATORY INFECTIONS” (priority 2010, published 2013)", "tested_on": "Pseudomonas aeruginosa", "assay": "Bacterial clearance by THP-1 macrophages", "assay_type": "cell-based", "settings": "after exposure with Poly(I) (10 μg/ml)", "description": "The above data collectively indicate that the activation of Nrf2 improves bacterial phagocytosis and clearance by COPD macrophages. The dependence of Nrf2 on bacterial phagocytosis was investigated. […] This observations confirmed Nrf2-dependent modulation of bacterial phagocytosis and clearance. To determine the mechanisms by which Nrf2 regulates phagocytosis, microarray analysis was employed. […] To address whether sulforaphane-induced expression of MARCO correlates with bacterial clearance, differentiated human THP-1 macrophages were used. Bacterial clearance by sulforaphane treated THP-1 macrophages after exposure with polyinosinic acid (Poly(I)) was analyzed. Poly(I) is a non-selective class A scavenger receptor blocker that inhibits MARCO mediated bacterial uptake and clearance (G. M. DeLoid, T. H. Sulahian, A. Imrich, L. Kobzik, PLoS One 4, e6209 (2009)). […] Next, phagocytosis of FITC-Pseudomonas aeruginosa was examined in THP-1 macrophages with knockdown of MARCO using lentivirus-encoded shRNA (MARCO shRNA).\nBMDM were isolated by culturing bone marrow cells in the presence of 10 ng/ml granulocyte-macrophage colony-stimulating factor (PeproTech) for 7 days. Murine macrophages were cultured in RPMI 1640 medium supplemented with 10% FBS and 1% penicillin-streptomycin. […]", "data": [{"substance": "polyinosinic acid [Poly(I)]", "values": [{"measurement": "bacterial clearance by sulforaphane treated THP-1 macrophages", "result": "significantly impaired sulforaphane ability to improve bacterial clearance"}]}]}
